Consider 104 molecules from ChEMBL document CHEMBL3507680, “University of Dundee, Gates Library screen for HepG2 cell viability”.

The data set in a line: Human HepG2 cell viability assay in 384 well format. Type of data set: toxicity, cell-based. The arrangement: dose 125 nL, time 70.5 hour; concentration not given beside the values. As to conditions: HepG2 cells, read-out: Inhibition.

Regarding `c1cnn(CC2CN(Cc3csc(-c4ccsc4)n3)CCO2)c1` (centres undefined), the cytotoxicity at 70.5 h is -6.82%.
Next, `COC(C)c1nc(CN2CCNCC2)cs1` (centres undefined): 0.111%; `CCOC(C)c1nc(CN2CCN(c3ncc(C)cn3)CC2)cs1` (centres undefined): -5.09%.
Next, `COCc1noc(C2(c3cccc(Cl)c3)CCOCC2)n1`: 26.5%.
In the case of `Cc1ccc(S(=O)(=O)N2CCC(N3CCCCC3)CC2)cc1C`, the cytotoxicity at 70.5 h turned out to be 5.06%.
Next, `CCNC(=O)COc1ccc(C(=O)NC(C)CCc2ccco2)cc1` (centres undefined): 2.41%.
As to `CC1CCN(CCCNC(=O)Nc2cc3c(cc2Br)OCCO3)CC1`, the cytotoxicity at 70.5 h was -0.325%.
As for `Cc1csc(CNC(=O)NCC(O)c2ccccc2)n1` (centres undefined), the figure is -4.81%; as for `Cc1ccc(NC(=O)NCC2(N3CCOCC3)CCSC2)c(C)c1` (centres undefined), 8.25%.
Consider `NC(=O)COc1ccc(C(=O)NCCc2ccco2)cc1`, for which the cytotoxicity at 70.5 h was -5.22%.
As for `Cc1ccc(C(=O)CN2C(=O)c3ccccc3CS2(=O)=O)c(C)c1`, the figure is -10.2%; as for `O=C(NCc1nnc2n1CCCCC2)N(Cc1ccncc1)C1CC1`, -4.16%.
Next, `C=C(C)CN1CCC(NC(=O)NCCc2ccc(N(C)C)cc2)CC1`: 12.7%.
As to `Cn1cc(CNC(=O)NCCOc2ccc(F)c(F)c2)cn1`, the cytotoxicity at 70.5 h is -0.0625%.
As for `N#Cc1cc(NC(=O)c2cc[nH]n2)ccc1N1CCC(O)CC1`, the cytotoxicity at 70.5 h was determined as 9.29%.
Next, `COc1cc(C)ccc1OCC(=O)NS(=O)(=O)c1cc(F)ccc1F`: -4.22%.
In the case of `Fc1ccc(OCC2CCCO2)c(NCc2cn3cccnc3n2)c1` (centres undefined), the cytotoxicity at 70.5 h amounted to 8.09%.
As for `COCc1noc(C2(c3ccc(F)cc3)CCC2)n1`, the figure is -0.0433%; as for `Cc1ccc(S(=O)(=O)N2CCCCC(N3CCN(C)CC3)C2)cc1F` (centres undefined), -5.17%.
In the case of `CN(Cc1cnn(C)c1)Cc1nc(Cc2cccc(Cl)c2)no1`, the cytotoxicity at 70.5 h was -7.96%.
Next, `COCCSCC(=O)NC1(c2cccc(Br)c2)CC1`: -2.67%; `Cc1cc(C(=O)NCc2ccccc2CN(C)Cc2ccco2)on1`: 9.59%.
Next, `CCN1CCN(c2ccc(F)cc2C(C)NCc2ccccn2)CC1` (centres undefined): 13.7%; `COc1ccc(OC)c(C(C)NC(=O)Nc2nnc(C)s2)c1` (centres undefined): -5.29%.
Next, `COc1ccc(C(C)NC(=O)Nc2nnc(C)s2)c(OC)c1` (centres undefined): -4.87%.
`CC(C)(C)OC(=O)NCCNC(=O)c1cnc(-c2ccccc2)nc1`: the cytotoxicity at 70.5 h is -0.668%.
`CN(C)C(=O)CCNC(=O)c1cnc(-c2ccccc2)nc1`: the cytotoxicity at 70.5 h is -5.51%.
Next, `CC1CN(C(=O)c2ccn(C)c(=O)c2)c2ccccc2NC1=O` (centres undefined): -2.71%; `CN(CCc1nccs1)C(=O)C1(C#N)CCCCC1`: 0.343%.
As for `Cc1cc(F)ccc1N1CCCC(NC2CCSCC2)C1=O` (centres undefined), the figure is -2.24%; as for `O=C(NCCC1CCN(CC(F)(F)F)CC1)C1CCCO1` (centres undefined), -1.77%; as for `CCS(=O)(=O)NC1CCCN(c2ccc(F)cc2C)C1=O` (centres undefined), -3.11%.
As for `CN(CC(=O)N(CCC#N)c1ccccc1)C1CCc2ccccc21` (centres undefined), the cytotoxicity at 70.5 h was 5.13%.
Next, `Cc1ccc(CCC(C)NC2CCN(C(N)=O)CC2)cc1` (centres undefined): -1.06%; `Oc1ccc(N(CCc2ccccc2)CCn2cncn2)cc1`: 7.13%; `CC(C)(C)CN(CCC#N)Cn1cc(Cl)cn1`: -3.15%.
Next, `CCc1nc(C2CCCN(c3ncccn3)C2)no1` (centres undefined): -2.54%.
As for `COC(=O)c1ccccc1NS(=O)(=O)c1c(C)nn(C)c1C`, the figure is -6.21%; as for `Cn1cc(CCNC(=O)C2(c3cccc(Cl)c3)CC2)cn1`, -18.4%; as for `CCCOC1CCCN(C(=O)c2csc(S(N)(=O)=O)c2)C1` (centres undefined), 9.57%.
Regarding `O=C(NCCCn1ccnc1)Nc1ccn(CCc2ccccn2)n1`, the cytotoxicity at 70.5 h was -5.67%.
With `CCN1CCOC(CNc2nccc(C(F)(F)F)n2)C1` (centres undefined), the cytotoxicity at 70.5 h is -6.79%.
Consider `CCN(C(=O)c1ccc2nncn2c1)C(C)Cc1ccc(OC)cc1` (centres undefined), for which the cytotoxicity at 70.5 h was -5.25%.
For `c1cnn(C2CN(CCCOc3ccc4c(c3)OCO4)C2)c1`, the cytotoxicity at 70.5 h came to 11.1%.
As for `COCCCn1ccc(NC(=O)NCCn2ccnc2)n1`, the figure is -8.92%; as for `OC(COc1ccc2c(c1)OCO2)CN1CC(n2cccn2)C1` (centres undefined), -3.37%.
As to `CN(C)c1ccc(CCCNC(=O)NCC(O)c2cccs2)cc1` (centres undefined), the cytotoxicity at 70.5 h was -8.37%.
As for `CCOc1ccc(OC2CCCN(c3cnn(C)c3)C2=O)cc1` (centres undefined), the cytotoxicity at 70.5 h was 10.6%.
As to `Cc1noc(-c2ccnc(N3CCCN(C4CCOCC4)CC3)c2)n1`, the cytotoxicity at 70.5 h is -3.75%.
Take `Cn1cc(CCCNC(=O)NCC(O)c2ccsc2)cn1` (centres undefined): the cytotoxicity at 70.5 h is -2.64%.
Turning to `CS(=O)(=O)Cc1ccc(NC(=O)c2cccnc2)cc1F`, the cytotoxicity at 70.5 h was -6.22%.
Next, `CC(C)(C)n1ncc2c(=O)[nH]c(NC3CC=CC3)nc21`: 0.3%; `CC(C)Cn1cc(NC(=O)NCC2CCN(c3ccccc3)C2)cn1` (centres undefined): -0.00229%; `CCOC1CCCN(C(=O)c2[nH]nc(C)c2Br)C1` (centres undefined): -11.5%.
Next, `CCOC(C)C(=O)Nc1ccc(Sc2nncn2C)c(Cl)c1` (centres undefined): -4.37%; `CCN1CCOC(CNc2nccc(OC)n2)C1` (centres undefined): -5.64%.
In the case of `CC(C)COC(C)C(=O)N1CCCC1` (centres undefined), the cytotoxicity at 70.5 h is -7.16%.
For `CCc1nc(C2CCCN(c3nccc(C)n3)C2)no1` (centres undefined), the cytotoxicity at 70.5 h was -12.5%.
For the molecule `O=C(NCCCO)Nc1ccccc1`, the cytotoxicity at 70.5 h was determined as 3.04%.
Next, `O=S1(=O)CCC(CNS(=O)(=O)N2CCc3ccccc3C2)C1` (centres undefined): 1.82%; `COc1ccc(NC(=O)CSC(F)(F)F)cn1`: 9.73%.
For `Cc1nc(C(C)(C)C)sc1C(=O)NCCn1ccnc1`, the cytotoxicity at 70.5 h was -7.91%.
As for `O=C(NCCNc1ncccn1)c1scnc1Cl`, the cytotoxicity at 70.5 h came to 9.91%.
`Cc1nc(C(C)C)sc1C(=O)NCCn1ccnc1`: the cytotoxicity at 70.5 h is -7.02%.
Next, `CC(C)(C)CCNC(=O)c1ccc(Cl)c(NS(C)(=O)=O)c1`: 8.13%; `O=C(NCCCO)Nc1cccc(I)c1`: -5.84%.
As for `O=C(C[S+]([O-])Cc1cccc(F)c1)NC1CCCC1` (centres undefined), the cytotoxicity at 70.5 h amounted to 0.67%.
As for `COc1ccc(-c2ccc(C(=O)NCCCC(N)=O)c(F)c2)c(F)c1`, the figure is -3.05%.
As for `O=C(NCCCO)Nc1cccc(C[S+]([O-])Cc2ccccc2)c1` (centres undefined), the figure is -4.46%.
As for `Cc1cccc(C(C)(C)NC(=O)CCS(C)(=O)=O)c1`, the figure is -3.08%; as for `COc1ccc(-c2ccc(C(=O)NS(C)(=O)=O)c(F)c2)cc1`, -5.82%; as for `CCN(C)S(=O)(=O)NCC1(c2cccc(Br)c2)CC1`, -1.33%.
With `O=C1CCC(=O)N1CCN1CCC(=Cc2ccccc2)CC1`, the cytotoxicity at 70.5 h is -0.346%.
Consider `Cc1nn(C)c(C)c1NC(=O)CNc1cc(C(F)(F)F)ccc1F`, for which the cytotoxicity at 70.5 h is 25%.
Next, `CSc1ccc(NCC(=O)Nc2c(C)nn(C)c2C)cc1F`: -4.28%; `CNC(=O)CN1CCCC1c1ccccc1Br` (centres undefined): -6.18%.
Take `CNC(=O)NC(=O)CN1CCN(CC(F)(F)F)CC1(C)C`: the cytotoxicity at 70.5 h is -4.26%.
Next, `CC1(C)CN(CC(F)(F)F)CCN1CC(=O)N1CCCCC1`: 11.7%; `Cc1nn(C)c(C)c1CCC(=O)OCC(=O)N1CCc2sccc2C1`: 20.5%.
Next, `O=S(=O)(NCc1cccnc1OC1CCCC1)N1CCOCC1`: -10.2%; `N#CCCN1CCC(=Cc2ccccc2)CC1`: -6.02%.
As for `O=S(=O)(NCc1cccnc1OC1CCCC1)N1CCCCC1`, the figure is 0.259%; as for `CCCc1nc(C)c(C(=O)NCCn2ccnc2)s1`, -7.16%.
For `Cc1cc(C)n(CCC(=O)OCC(=O)N2CCc3sccc3C2)n1`, the cytotoxicity at 70.5 h was -4.48%.
`CC1(C)CN(CC(F)(F)F)CCN1CC(=O)NC1CCCC1`: the cytotoxicity at 70.5 h was -4.28%.
As for `CCc1nonc1NC(=O)C(C)Oc1ccccc1F` (centres undefined), the cytotoxicity at 70.5 h was -10.4%.
Regarding `CCC(NCc1nccn1C)c1nc(C(F)(F)F)cs1` (centres undefined), the cytotoxicity at 70.5 h was -0.765%.
For the molecule `Cc1cccc2c(CCNC(=O)NCCC[S+](C)[O-])c[nH]c12` (centres undefined), the cytotoxicity at 70.5 h is -1.72%.
As for `CC(C#N)(NC(=O)COc1ccccc1Br)C1CC1` (centres undefined), the cytotoxicity at 70.5 h was 8.66%.
As for `Cc1nn(C)c(C)c1CC(=O)NCc1cccnc1OC1CCCC1`, the figure is -3.95%; as for `Cc1nn(C)c(C)c1C(=O)NCc1cccnc1OC1CCCC1`, -5.73%; as for `COc1ccc(Cl)cc1-c1cc(NC(=O)C2COCCO2)[nH]n1` (centres undefined), -4.84%.
With `CC(C(=O)Nc1ncccn1)N1CCC(n2ccnc2)CC1` (centres undefined), the cytotoxicity at 70.5 h is -4.52%.
As for `Cc1cccc(C2(O)CCN(C(=O)c3ccccn3)CC2)c1C`, the figure is 1.09%; as for `CS(=O)(=O)NCc1ccc(NC(=O)CC2=CCCCC2)cc1`, -0.966%; as for `COc1ccc(CN2CCC(C(N)=O)CC2)cc1SC(F)(F)F`, 5.97%.
`Cc1cc(C(C)(O)CNC(=O)C2(C)CCCC2)c(C)o1` (centres undefined): the cytotoxicity at 70.5 h is -0.0569%.
As for `Cc1ccc2c(c1)OCCCC2NC1CCN(C)CC1` (centres undefined), the figure is -0.243%; as for `CCS(=O)(=O)NCCNCc1cc(F)ccc1Br`, 14.4%.
For the molecule `Cc1nc(-c2cccc(C(=O)N(C)CC(C)O)c2)cs1` (centres undefined), the cytotoxicity at 70.5 h was 0.422%.
With `CCCNC(=O)C1CCCN(Cc2ccc(-n3cncn3)c(C)c2)C1` (centres undefined), the cytotoxicity at 70.5 h is -1.68%.
On to `COc1ccc(C(C)Nc2ncc(C(N)=O)cc2Cl)cc1F` (centres undefined), for which the cytotoxicity at 70.5 h was -10.7%.
Take `Cc1nn2c(nc1=O)-c1ccccc1NC2C(=O)O` (centres undefined): the cytotoxicity at 70.5 h is -9.44%.
As for `O=C(CC1CCCO1)Nc1ccc2c(ccn2CCN2CCOCC2)c1` (centres undefined), the figure is -8.05%.
